Numbers after ± are expanded uncertainties.
Test: xn = mol fraction of the nth substance listed
Conditions: 101 kPa, Liquid; for viscosity: Capillary tube (Ostwald / Ubbelohde) method; for excess molar volume: Direct dilatometry; for speed of sound: Linear variable-path acoustic interferometer

C=COC(C)=O [vinyl acetate] + Cc1ccc(C)cc1
Conditions	excess molar volume, 303.15 K [m3/mol]	excess molar volume, 308.15 K [m3/mol]	excess molar volume, 313.15 K [m3/mol]	speed of sound, 303.15 K [m/s]	speed of sound, 308.15 K [m/s]	speed of sound, 313.15 K [m/s]	viscosity, 303.15 K [mPa·s]	viscosity, 308.15 K [mPa·s]	viscosity, 313.15 K [mPa·s]
x2 = 0	0 ± 6e-09	0 ± 6e-09	0 ± 6e-09	1095.9 ± 5.2	1072.5 ± 5.1	1055.7 ± 5.1	0.384 ± 0.012	0.361 ± 0.011	0.332 ± 0.011
x2 = 0.0767	-4.3e-08 ± 6e-09	2e-08 ± 6e-09	4.2e-08 ± 6e-09	1108.1 ± 5.2	1084.9 ± 5.2	1067.7 ± 5.1	0.4 ± 0.012	0.367 ± 0.011	0.333 ± 0.011
x2 = 0.1577	-6.8e-08 ± 6e-09	3.8e-08 ± 6e-09	7.2e-08 ± 6e-09	1122.6 ± 5.2	1098.2 ± 5.2	1080.6 ± 5.2	0.415 ± 0.012	0.376 ± 0.011	0.341 ± 0.011
x2 = 0.2421	-7.3e-08 ± 6e-09	5.7e-08 ± 6e-09	9.8e-08 ± 6e-09	1138.8 ± 5.2	1112.3 ± 5.2	1094.7 ± 5.2	0.428 ± 0.013	0.387 ± 0.012	0.352 ± 0.011
x2 = 0.3332	-7.2e-08 ± 7e-09	7.3e-08 ± 6e-09	1.21e-07 ± 6e-09	1156.6 ± 5.2	1128 ± 5.2	1110.6 ± 5.2	0.44 ± 0.013	0.399 ± 0.012	0.365 ± 0.011
x2 = 0.43	-6.1e-08 ± 7e-09	8.9e-08 ± 6e-09	1.41e-07 ± 6e-09	1175.5 ± 5.2	1145.6 ± 5.2	1128.6 ± 5.2	0.453 ± 0.013	0.414 ± 0.012	0.38 ± 0.012
x2 = 0.5319	-5.1e-08 ± 7e-09	9.6e-08 ± 6e-09	1.48e-07 ± 6e-09	1195.4 ± 5.2	1165.3 ± 5.2	1148.8 ± 5.2	0.469 ± 0.014	0.432 ± 0.013	0.399 ± 0.012
x2 = 0.6371	-2.7e-08 ± 6e-09	9.2e-08 ± 6e-09	1.4e-07 ± 6e-09	1215.8 ± 5.2	1187.3 ± 5.2	1171 ± 5.2	0.489 ± 0.014	0.453 ± 0.013	0.422 ± 0.012
x2 = 0.7488	-4e-09 ± 6e-09	7.6e-08 ± 6e-09	1.13e-07 ± 6e-09	1237.4 ± 5.2	1211.9 ± 5.2	1196.4 ± 5.2	0.512 ± 0.015	0.478 ± 0.014	0.447 ± 0.013
x2 = 0.8654	6e-09 ± 6e-09	4.4e-08 ± 6e-09	7.2e-08 ± 6e-09	1259.7 ± 5.2	1238.6 ± 5.2	1224.5 ± 5.2	0.538 ± 0.015	0.504 ± 0.014	0.475 ± 0.014
